Source: US20090233917A1, “Stroke recovery” (priority 2006, published 2009)
“Also recorded” adds a separate entry of the source.

Assays:
[1] = system: permanent middle cerebral artery occlusion (MCAO) in rats; assay: Functional recovery following permanent MCAO in rats (Example 1); format: in vivo, Sprague Dawley Rats
From the text: The purpose of this study was to evaluate the efficacy of arimoclomol and iroxanadine in enhancing neurological recovery in a model of permanent middle cerebral artery occlusion (MCAO) in rats. The permanent MCAO is a well accepted and considered to be a standard animal model for studying clinical aspects of stroke. (Stroke. 1999; 30:2752-2758.)
Forty male Sprague Dawley Rats, each weighing 300-400 g, which had been housed and handled for behavioral assessment for seven (7) days prior to surgery for acclimation purposes, were operated under anesthesia to create focal cerebral infarcts by permanent occlusion of the proximal right middle cerebral artery (MCA) according to modified Tamura model. Briefly, the rats were anesthetized with 2-3% halothane in the mixture of N2O:O2 (2:1), and were maintained with 1˜1.5% halothane in the mixture of N2O:O2 (2:1). The temporalis muscle was bisected and reflected through an incision made midway between the eye and the eardrum canal. The proximal MCA was exposed through a subtemporal craniectomy without removing the zygomatic arch and without transecting the facial nerve. […] Body temperature was maintained at 37.5° C.±0.5° C. throughout the entire procedure. Cefazolin (40 mg/kg; Baxter, Lot 06014.1, Exp. January 2009) was given i.p. one day before MCAO and just after MCAO to prevent infections.
The rats were randomly divided into 4 groups of 10 animals each. One group was given arimoclomol, p.o., starting at one hour after the occlusion at 200 mg/kg/d once daily for 3 days, then 50 mg/kg/d once daily for a total of 29 days. The second group was given iroxanadine using the same dosing regimen as for arimoclomol. The third group is a positive control group and is given intracistemally 1 μg (at 20 μg/ml, also containing 100 μg/ml of bovine serum albumin) beta-fibroblast growth factor (bFGF) one hour and one day (i.e. two administrations) after the occlusion. The fourth group is a negative control with administration of the vehicle only.
Animals were evaluated preoperation (day −1), then every 7 days after the operation (7, 14, 21, and 28 days) by forelimb and hindlimb placing tests and body swing test, which are widely accepted as standard tests indicative of functional recovery after a stroke model.
For the forelimb placing test, the examiner held the rat close to a tabletop and scored the rat's ability to place the forelimb on the tabletop in response to whisker, visual, tactile, or proprioceptive stimulation. Similarly, for the hindlimb placing test, the examiner assessed the rat's ability to place the hindlimb on the tabletop in response to tactile and proprioceptive stimulation. Separate sub-scores were obtained for each mode of sensory input (halfpoint designations possible), and added to give total scores (for the forelimb placing test: 0=normal, 12=maximally impaired; for the hindlimb placing test: 0=normal; 6=maximally impaired).
For the body swing test, the rat was held approximately one inch from the base of its tail. It was then elevated to an inch above a surface of a table. The rat was held in the vertical axis, defined as no more than […] to either the left or the right side. A swing was recorded whenever the rat moved its head out of the vertical axis to either side. The rat must return to the vertical position for the next swing to be counted. Thirty (30) total swings were counted. A normal rat typically has an equal number of swings to either side. Following focal ischemia, the rat tends to swing to the contralateral (left) side.
The behavior was evaluated by giving the score ranging in the parentheses after each test: • Forelimb placing test (0-12), consisting of whisker tactile placing (0-2); visual placing (forward, sideways) (0-4); tactile placing (dorsal, lateral) (0-4); and proprioceptive placing (0-2); • Hindlimb placing test (0-6), consisting of tactile placing (dorsal, lateral) (0-4); and proprioceptive placing (0-2). […]

MCA occlusion in rats [2] = assay: Functional recovery following MCA occlusion in rats, dose study (Examples 2, 3, 6); format: in vivo, Sprague Dawley Rats
Method: Fifty male Sprague Dawley Rats, each weighing 300-400 g, are operated under anesthesia to create MCA occlusion as described in Example 1, and are divided into 5 groups of 10 animals each. Each group is given arimocolomol, p.o., starting at one day after the occlusion at 25 mg/kg/d, 50 mg/kg/d, 100 mg/kg/d, or 200 mg/kg/d once daily for 35 days. One group is a control group with administration of the vehicle only.
Animals are evaluated pre-operation (day −1), then every 7 days after the operation (7, 14, 21, 28, and 35) by forelimb and hindlimb placing tests and body swing test, and given scores as described in Example 1.
On day 35 after MCAO, rats in the control group and the group with the highest dosage were sacrificed and their brains evaluated as in Example 1. The rats in other groups are sacrificed and the brains were removed and flash frozen for further analysis.

MCA occlusion in rats [3] = assay: Functional recovery following MCA occlusion in rats, therapeutic window / time course (Examples 4, 5); format: in vivo, Sprague Dawley Rats
Method: Fifty male Sprague Dawley Rats, each weighing 300-400 g, are operated under anesthesia to create MCA occlusion as described in Example 1, and are divided into 5 groups of 10 animals each. […] One group is a control group with administration of the vehicle only at 6 hours. The animals are evaluated as described in Example 2. The experiment of Example 4 is also carried out using iroxanadine as the therapeutic agent.

healthy human volunteers = assay: Pharmacokinetic clinical study in healthy human volunteers; format: in vivo
Method: Seven healthy human volunteers were administered orally 400 mg t.i.d. dosing (1200 mg/day) in a double-blinded and placebo controlled clinical study.

[4] = treatment from 1 h after occlusion, up to 28 days

[O-][n+]1cccc(/C(Cl)=N/OC[C@H](O)CN2CCCCC2)c1 [arimoclomol, N-[2-hydroxy-3-(1-piperidinyl)propoxy]-pyridine-1-oxide-3-carboximidoyl chloride]
Infarct Volume (%) ([1]; day 28 after permanent MCAO, percentage of intact contralateral hemispheric volume, mean ± S.E.M.): 21.6 ± 3.6% | Body Swing Test, recovery compared to vehicle group [1, 4]: superior to the vehicle group; also recorded: non-significant trend of enhanced recovery | Forelimb Placing Test, recovery compared to vehicle group [1, 4]: superior to the vehicle group | Hindlimb Placing Test, recovery compared to vehicle group [1, 4]: superior to the vehicle group | behavioral scores compared to vehicle control group (MCA occlusion in rats [2]; 25 mg/kg/day p.o. from one day after occlusion): no significant difference | behavioral scores (forelimb placement, hindlimb placement, body swing tests) (MCA occlusion in rats [2]; 50, 100 and 200 mg/kg/day p.o. from one day after occlusion, 35 days): significant dose related improvement | changes in infarct volume (MCA occlusion in rats [2]; day 35, highest dosage vs control): no changes | changes in body weight (MCA occlusion in rats [2]; dose study, 35 days): no changes | effective doses in the stroke recovery model (MCA occlusion in rats [2]; p.o. once daily): 50 to 200 mg/kg/day | maximum effective dose in the study (MCA occlusion in rats [2]; p.o. once daily): 200 mg/kg/day | Body Swing Test, recovery compared to vehicle group (MCA occlusion in rats [3]; 200 mg/kg/d p.o., all start times): superior to the vehicle group | Hindlimb Placing Test, time course of recovery compared to vehicle group (MCA occlusion in rats [3]; 200 mg/kg/d p.o., first dose 6, 12, 24 or 48 h after occlusion): superior to the vehicle group | Forelimb Placing Test, recovery compared to vehicle group (MCA occlusion in rats [3]; 200 mg/kg/d p.o., first dose 6, 12, 24 or 48 h after occlusion, all groups): superior to the vehicle group | Hindlimb Placing Test, difference among treated groups (MCA occlusion in rats [3]; first administration 6, 12, 24, or 48 hours after occlusion): no statistical difference | Body Swing Test, performance after 21 days (MCA occlusion in rats [3]; first administration 6 hours after occlusion): continued to show improved performance | Forelimb Placing Test, recovery compared to other start times (MCA occlusion in rats [3]; first administration 6 hours after stroke): superior | Forelimb Placing Test, recovery (MCA occlusion in rats [3]; first administration 48 hours after occlusion): significant and sustained | Body Swing Test, recovery of 48 h group compared to 6 h group (MCA occlusion in rats [3]; time points up to and including 21 days after occlusion): indistinguishable | clinical abnormalities or changes (ECGs, vital signs, clinical chemistry, physical examination, body weight) (healthy human volunteers; 400 mg t.i.d. (1200 mg/day) orally): No clinical abnormalities or changes were observed | level of exposure of the 200 mg/kg/day rat PK study in humans (healthy human volunteers; 400 mg t.i.d. orally, AUC and Cmax, FIG. 15): can be safely achieved in human volunteers
